We go through 15 compounds from US20240024490A1, “BIFUNCTIONAL MOLECULES FOR SELECTIVE MODIFICATION OF TARGET SUBSTRATES” (The Broad Institute, Inc., priority 2021, published 2024).

Like-named read-outs stand apart in the source and are kept apart here. A value given as a limit tells only on which side of the number the result lay.

The test system of one data set is C26. Conditions: cited from earlier work.
For data set [1] the following is noted: cited from earlier work.
A further data set relates to AMPK. To be noted: cited from earlier work.
The test system of the next data set is MCF-7 (breast). To be noted: cited from earlier work.
The next data set concerns BT-474 (breast). To be noted: cited from earlier work.
A further data set has as its system KU-19-19 (bladder). Conditions: cited from earlier work.
Data set [2] has as its system LPS-stimulated THP-1 cells. Conditions: read-out: IC50, block of TNFα release; cited from earlier work.
Data set [3] deals with EGFR(L858R/T790M/C797S) tumors. To be noted: in vivo; cited from earlier work.
The subject of data set [4] is screening panel of kinases. To be noted: 1000 nM EAI045; cited from earlier work.
Another data set has as its system OP-1. Conditions: cited from earlier work.
A further data set has as its system SupB15. Conditions: cited from earlier work.
The test system of another data set is ICN13. To be noted: cited from earlier work.
In another data set the test system is LAX2. To be noted: cited from earlier work.
The next data set has as its system KOPN-8. Conditions: cited from earlier work.
The next data set has as its system LAX7R. To be noted: cited from earlier work.
The test system of the next data set is 697 cells. Conditions: cited from earlier work.
The next data set has as its system Nalm6. Conditions: cited from earlier work.
Another data set has as its system REH. Conditions: cited from earlier work.
For another data set, the system named is RS4. To be noted: cited from earlier work.
The subject of a further data set is SEM cells. To be noted: cited from earlier work.
In the next data set the test system is Z138. To be noted: read-out: IC50, proliferation; cited from earlier work.
For a further data set, the system named is MS751 cervical carcinoma. To be noted: read-out: IC50, proliferation; cited from earlier work.
The subject of data set [5] is Molt-4 (T cell acute lymphoblastic leukemia) xenografts. Conditions: SCID mice; cited from earlier work.
Data set [6] has as its system CD138-purified multiple myeloma (MM) cells from patients. Conditions: cited from earlier work.
In the next data set the target is RIPK-1 (Homo sapiens, UniProt Q13546). To be noted: cited from earlier work.
For the next data set, the system named is FGFR2. To be noted: read-out: IC50, FGF1-induced ERK phosphorylation via FGFR2; cited from earlier work.
The subject of another data set is p-ERK1/2. Conditions: cited from earlier work.
For data set [7] the following is noted: in vivo; cited from earlier work.
A further data set relates to HER2-Cter-FKBP. The data set is described as follows: Phosphorylation of HER2-Cter-FKBP by ABL in transfected HEK293 cells (pY1221 HER2-specific antibody). It is filed as cell-based. Conditions: 15 minutes of compound treatment, FIG. 74C.
A further data set has as its system HER2-Cter-FKBP construct. In words: Phosphorylation of HER2-FKBP construct by ABL in HEK293 cells. The data set is classed as cell-based. To be noted: 15 minutes, pY1221 HER2-specific antibody.
The next data set has as its system FGFR. In words: FGFR-FKBP phosphorylation by ABL and FGFR1/mTOR/G-CSF signaling. The data set is classed as cell-based. The text has this:
Applicants expanded the scope of ABL targets by phosphorylating a receptor tyrosine kinase, FGFR by fusing an FKBP domain to the cytosolic portion of FGFR (FIG. 37).

The next data set concerns PTK2. Conditions: prostate cancer cells; read-out: IC50, autophosphorylation of PTK2; cited from earlier work.
The conditions of data set [8]: cited from earlier work. The source holds these as a separate data set.
A further data set relates to Crk-L. Conditions: cited from earlier work.
Data set [9] concerns NCI-H441 cells. Conditions: read-out: viability IC50; cited from earlier work.
The test system of data set [10] is NCI-H441 cells. To be noted: read-out: Invasion IC50; cited from earlier work.
For another data set, the target named is T1, c-Met (Homo sapiens, UniProt P08581).
T1 construct: host or cells: NCI-H441 (as the sentence says)
Conditions: cited from earlier work.

The subject of data set [11] is NCI-H441 cells. To be noted: read-out: phosphor-MET IC50; cited from earlier work.
Data set [12] concerns the target β2 subunit-containing AMPK (Homo sapiens, UniProt O43741+Q13131). Conditions: cited from earlier work.
Data set [13] has as its target β1 subunit-containing AMPK (Homo sapiens, UniProt Q13131+Q9Y478). Conditions: cited from earlier work.

T1 sequence (P08581 25-1390): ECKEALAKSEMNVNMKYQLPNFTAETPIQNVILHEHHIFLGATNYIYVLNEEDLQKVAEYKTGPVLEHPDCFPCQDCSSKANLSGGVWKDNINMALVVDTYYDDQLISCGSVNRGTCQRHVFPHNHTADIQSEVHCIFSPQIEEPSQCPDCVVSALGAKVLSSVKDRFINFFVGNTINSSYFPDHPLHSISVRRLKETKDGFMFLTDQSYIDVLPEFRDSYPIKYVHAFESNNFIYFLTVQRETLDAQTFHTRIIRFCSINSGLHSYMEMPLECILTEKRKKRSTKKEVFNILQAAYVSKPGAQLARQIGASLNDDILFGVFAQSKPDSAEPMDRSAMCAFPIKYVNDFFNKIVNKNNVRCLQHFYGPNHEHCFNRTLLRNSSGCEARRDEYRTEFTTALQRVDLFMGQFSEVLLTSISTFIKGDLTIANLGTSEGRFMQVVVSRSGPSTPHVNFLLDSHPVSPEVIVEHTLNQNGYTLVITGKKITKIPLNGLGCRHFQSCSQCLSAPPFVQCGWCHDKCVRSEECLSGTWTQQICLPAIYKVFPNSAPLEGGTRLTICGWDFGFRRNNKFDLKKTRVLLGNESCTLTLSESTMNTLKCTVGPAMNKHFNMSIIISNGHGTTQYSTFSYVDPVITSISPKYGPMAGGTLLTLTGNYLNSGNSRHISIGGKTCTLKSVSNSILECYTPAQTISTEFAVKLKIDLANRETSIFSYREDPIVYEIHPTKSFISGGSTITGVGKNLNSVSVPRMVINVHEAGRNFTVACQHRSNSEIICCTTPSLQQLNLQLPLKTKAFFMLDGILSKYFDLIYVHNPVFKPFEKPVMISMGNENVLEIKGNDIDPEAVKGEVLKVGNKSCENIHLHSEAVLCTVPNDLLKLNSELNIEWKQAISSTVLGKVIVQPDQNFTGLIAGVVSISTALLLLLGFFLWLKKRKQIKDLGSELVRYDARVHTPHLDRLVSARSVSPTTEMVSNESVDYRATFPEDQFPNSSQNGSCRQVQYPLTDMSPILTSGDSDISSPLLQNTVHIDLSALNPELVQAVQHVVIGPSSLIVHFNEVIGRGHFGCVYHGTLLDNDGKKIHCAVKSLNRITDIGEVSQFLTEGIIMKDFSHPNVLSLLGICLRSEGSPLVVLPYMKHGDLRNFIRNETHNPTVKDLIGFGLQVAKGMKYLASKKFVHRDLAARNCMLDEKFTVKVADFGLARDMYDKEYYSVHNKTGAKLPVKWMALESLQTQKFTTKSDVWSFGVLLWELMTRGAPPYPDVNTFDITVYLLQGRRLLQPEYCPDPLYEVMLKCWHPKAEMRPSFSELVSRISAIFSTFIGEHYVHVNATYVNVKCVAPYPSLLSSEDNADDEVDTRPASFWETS
Sequence of β2 subunit-containing AMPK (O43741 whole entry): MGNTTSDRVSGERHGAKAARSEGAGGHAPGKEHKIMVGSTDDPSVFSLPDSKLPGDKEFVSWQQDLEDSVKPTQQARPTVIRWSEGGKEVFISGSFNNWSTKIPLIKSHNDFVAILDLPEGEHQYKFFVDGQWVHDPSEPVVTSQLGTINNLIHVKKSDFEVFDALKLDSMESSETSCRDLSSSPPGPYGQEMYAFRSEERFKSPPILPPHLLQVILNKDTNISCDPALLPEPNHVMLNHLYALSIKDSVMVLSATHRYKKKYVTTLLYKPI
Sequence of β2 subunit-containing AMPK (Q13131 whole entry): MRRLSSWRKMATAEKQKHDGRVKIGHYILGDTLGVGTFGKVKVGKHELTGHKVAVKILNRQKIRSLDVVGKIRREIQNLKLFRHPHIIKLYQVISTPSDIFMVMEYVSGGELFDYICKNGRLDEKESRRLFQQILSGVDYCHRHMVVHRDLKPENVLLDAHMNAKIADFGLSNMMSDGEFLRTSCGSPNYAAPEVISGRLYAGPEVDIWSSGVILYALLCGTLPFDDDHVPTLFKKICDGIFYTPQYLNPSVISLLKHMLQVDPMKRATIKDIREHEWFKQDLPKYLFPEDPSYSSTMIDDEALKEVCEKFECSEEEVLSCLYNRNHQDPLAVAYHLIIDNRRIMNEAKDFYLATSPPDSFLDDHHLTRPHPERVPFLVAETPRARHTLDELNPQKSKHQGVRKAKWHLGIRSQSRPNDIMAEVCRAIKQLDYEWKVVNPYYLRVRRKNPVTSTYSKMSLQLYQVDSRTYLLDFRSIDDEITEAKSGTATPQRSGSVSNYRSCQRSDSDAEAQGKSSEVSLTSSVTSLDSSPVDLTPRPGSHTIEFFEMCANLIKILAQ
Sequence of β2 subunit-containing AMPK (P54619 whole entry partner): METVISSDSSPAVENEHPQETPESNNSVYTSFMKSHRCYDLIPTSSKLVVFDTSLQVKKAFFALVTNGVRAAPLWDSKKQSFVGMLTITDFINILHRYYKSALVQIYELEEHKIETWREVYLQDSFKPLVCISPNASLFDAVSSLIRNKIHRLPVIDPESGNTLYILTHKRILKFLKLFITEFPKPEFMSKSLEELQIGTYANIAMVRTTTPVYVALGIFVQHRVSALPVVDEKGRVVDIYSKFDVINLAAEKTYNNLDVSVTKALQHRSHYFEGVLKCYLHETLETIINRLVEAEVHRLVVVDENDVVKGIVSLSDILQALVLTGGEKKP
Sequence of RIPK-1 (Q13546 whole entry, species assumed): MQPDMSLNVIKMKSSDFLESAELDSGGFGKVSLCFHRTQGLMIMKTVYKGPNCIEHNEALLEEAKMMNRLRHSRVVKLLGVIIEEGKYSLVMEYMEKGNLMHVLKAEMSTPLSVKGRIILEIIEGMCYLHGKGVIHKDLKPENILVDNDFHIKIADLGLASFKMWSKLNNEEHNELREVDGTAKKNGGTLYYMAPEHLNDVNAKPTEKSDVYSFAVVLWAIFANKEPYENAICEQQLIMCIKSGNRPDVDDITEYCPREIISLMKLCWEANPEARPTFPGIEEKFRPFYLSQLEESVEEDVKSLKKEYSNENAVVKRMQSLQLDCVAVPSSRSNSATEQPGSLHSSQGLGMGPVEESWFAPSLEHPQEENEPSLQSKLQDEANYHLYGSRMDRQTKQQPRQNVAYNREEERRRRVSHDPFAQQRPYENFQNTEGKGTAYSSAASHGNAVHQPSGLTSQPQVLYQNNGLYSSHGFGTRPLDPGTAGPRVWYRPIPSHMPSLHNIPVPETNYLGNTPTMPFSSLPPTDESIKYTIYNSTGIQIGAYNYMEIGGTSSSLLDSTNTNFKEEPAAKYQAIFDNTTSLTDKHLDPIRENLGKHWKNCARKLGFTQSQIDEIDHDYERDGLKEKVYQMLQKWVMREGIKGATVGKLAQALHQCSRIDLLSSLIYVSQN
Sequence of β1 subunit-containing AMPK (Q9Y478 whole entry): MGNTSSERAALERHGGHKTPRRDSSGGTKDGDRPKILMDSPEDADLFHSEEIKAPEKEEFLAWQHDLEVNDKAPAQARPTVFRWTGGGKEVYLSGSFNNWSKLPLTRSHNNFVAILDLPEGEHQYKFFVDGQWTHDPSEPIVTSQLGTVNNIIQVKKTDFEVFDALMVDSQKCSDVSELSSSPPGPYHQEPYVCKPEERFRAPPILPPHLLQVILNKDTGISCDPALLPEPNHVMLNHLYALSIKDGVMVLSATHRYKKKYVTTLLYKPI
Sequence of β1 subunit-containing AMPK (Q13131 whole entry): as the sequence (Q13131 whole entry) above
Sequence of β1 subunit-containing AMPK (P54619 whole entry partner): as the sequence (P54619 whole entry partner) above

`O=C(NOCC1CC1)c1ccc(F)c(F)c1Nc1ccc(I)cc1Cl` [24 (CI-1040), CI-1040]: in the data set on C26, the IC50 is 35 nM. For the same compound, the “Sol (pH 6.5)” value in data set [1] is on record as under 1 μg/mL.

As a reminder, the pEC50 is the EC50 on a negative log10 scale, so that one unit is a factor of ten. Regarding `N#Cc1c(O)c2c(-c3ccc(-c4ccccc4O)cc3)csc2[nH]c1=O` [A769662], the pEC50 with AMPK is recorded as 6.0.

As usually defined, the EC50 is the midpoint of the concentration-response curve. With `C=CC(=O)Nc1ccc2[nH]c(=O)n(C3CCN(Cc4ccc(-c5nc6cc[nH]c(=O)c6cc5-c5ccccc5)cc4)CC3)c2c1` [Borussertib], the EC50 in the data set with MCF-7 (breast) was 277 ± 90 nM; with BT-474 (breast), 373 ± 54 nM; in the data set with KU-19-19 (bladder), 7.77 ± 0.641 µM.

Take `Cc1ccc(-n2nc(C(C)(C)C)cc2NC(=O)Nc2ccc(OCCN3CCOCC3)c3ccccc23)cc1` [Doramapimod]: the IC50 in data set [2] is 18 nM.

`O=C(Nc1nccs1)C(c1cc(F)ccc1O)N1Cc2ccccc2C1=O` (stereo not shown) [EAI045]: the “efficacy in xenograft models” value in [3] is “effective”. Also, the “inhibition of any other kinases in screening panels” value in [4] is listed as at most 20%.

Take `Nc1ccc(/C=C/C(=O)NCc2cc3cc(-c4ccc(C(=O)N5CCC(F)(F)CC5)cc4)cc(-c4ccc(F)cc4)c3o2)cn1` [KPT-9274]: the IC50 is 18 nM in the data set with OP-1; 22.6 nM in the data set with SupB15; 25.9 nM in the data set with ICN13; 19.4 nM with LAX2; 2.4 nM in the data set on KOPN-8; 32.7 nM with LAX7R. Moreover, the IC50 is 16.7 nM in the data set on 697 cells; 19 nM with Nalm6; 14.3 nM in the data set with REH; 5.6 nM in the data set on RS4; over 10 µM in the data set with SEM cells; under 100 nM with Z138. Moreover, in the data set on MS751 cervical carcinoma, the IC50 is under 100 nM. Also, the effect on xenografts result in data set [5] is recorded as “induces shrinkage”.

Consider `O=C(NC[C@H](O)CO)c1ccncc1Nc1ccc(I)cc1F` [Pimasertib], for which the IC50 in data set [6] was 2 to 200 nM.

By pIC50 is commonly meant −log10 of the IC50, conventionally taken in molar units. Take `CCC(C)(C)C(=O)N(O)Cc1ccccc1` [RIPA-56]: the pIC50 at RIPK-1 is 7.9.

As to `COc1c(C)c(C(=O)c2ccc(N)c(C(=O)O)c2)n2ccccc12` [SSR128129E], the IC50 in the data set with FGFR2 was under 100 nM.

As to `CC(=O)Nc1cccc(-n2c(=O)n(C3CC3)c(=O)c3c(Nc4ccc(I)cc4F)n(C)c(=O)c(C)c32)c1` [Trametinib, Trametnib], the “sustained suppression of p-ERK1/2” value in the data set on p-ERK1/2 was “more than 24 hours”. In addition, the “Absorption/distribution of an oral dose” value in data set [7] was 72%.

With `CC[C@H](C(=O)N1CCCC[C@H]1C(=O)O[C@@H](CCc1ccc(OC)c(OC)c1)c1cccc(OCC(=O)NCCOCCOCCOCCOCCC(=O)NC2=NN(c3ccc(Cl)c(Cl)c3)CC2)c1)c1cc(OC)c(OC)c(OC)c1` [VS1043], the “phosphorylation of HER2-Cter-FKBP construct” value in the data set with HER2-Cter-FKBP and with HER2-Cter-FKBP construct was “significant phosphorylation” in each case. Also, the “FGFR phosphorylation / FGFR1/mTOR/G-CSF signaling” value in the data set with FGFR was “activates FGFR1/mTOR/G-CSF signaling in a dose dependent manner”.

As for `CN1c2ccc(NCc3ccc(C(C)(C)C)cc3)cc2-c2c(cnn2C)S1(=O)=O` [compound 30], in the data set with PTK2, the IC50 was 7.1 µM.

Take `N#CCCC(=O)NC1=NN(c2ccc(Cl)c(Cl)c2)CC1` [compound 32]: the “In Vitro Clearance” value in data set [8] is reported as under 0.01 mL/min/mg protein. Besides, the “Fold Increase phCRKE Vs Total Crk-L (normalised)” value in the data set on Crk-L (40 min) is 19x; with Crk-L (180 min) it was 35x.

As usually defined, the pKi is the Ki on a negative log10 scale, so that one unit is a factor of ten. On to `O=C1NC(=O)[C@@H](c2cn3c4c(cccc24)CCC3)[C@@H]1c1c[nH]c2ccccc12` [tivantinib], for which the IC50 in the data set with NCI-H441 cells [9] is 100 nM; with NCI-H441 cells [10], 80 nM; at c-Met (read-out: Enzyme IC50), 50 nM; in the data set on NCI-H441 cells [11] it was 100 nM. The pKi on c-Met was 6.4. On c-Met, the “selectivity for c-Met over other kinases tested” value is recorded as 10-100 time.

With MT47-100, the “pKi as an allosteric inhibitor” value in data set [12] was 4.6. Besides, the “pKi as an activator” value in data set [13] is given as 5.4.
